The values that follow come from paper PMC10724569 (Heliyon, 2023).

The subject of the test is VRBMP-1 binding to ACE2 on NOK cells. Type of test: cell-based, human.

On to diminazene aceturate [DIZE], for which the “Binding of VRBMP-1 to NOK cells after DIZE treatment” value is on record as “significantly reduced binding of VRBMP-1 at all three concentrations in a dose-dependent manner”; the “Reduction of VRBMP-1 binding, decoy peptides and DIZE each alone” value was “significantly reduced the binding of VRBMP-1 with nearly the same potency”.
